The record followed here is ChEMBL document CHEMBL3045908, “Phenolic and iridoid glycosides from the rhizomes of Cyperus rotundus L” (Med Chem Res, 2013).

SMILES strings stand for the structures.

The assay relates to RAW264.7. Put plainly: Anti-inflammatory activity in Mus musculus (mouse) RAW264.7 cells assessed as inhibition of PMA-induced macrophages respiratory burst measured up to 30 min by chemiluminescence method. It is filed as functional, cell-based. Conditions: RAW264.7, 0.5 h.
Take `COC(=O)C1=CO[C@@H](O[C@@H]2O[C@H](CO[C@@H]3O[C@H](COC(=O)/C=C/c4cc(O)c(O)c(O)c4)[C@@H](O)[C@H](O)[C@H]3O)[C@@H](O)[C@H](O)[C@H]2O)[C@@H]2C(CO)=CC[C@H]12` [ROTUNDUSIDE B]: the IC50 amounted to 31.1 µM.

Turning to `C[C@@H]1C[C@H]2[C@@H]3CCC4=CC(=O)C=C[C@]4(C)[C@@]3(F)[C@@H](O)C[C@]2(C)[C@@]1(O)C(=O)CO` [DEXAMETHASONE], the IC50 is 355 µM.

With `COC(=O)C1=CO[C@@H](O[C@@H]2O[C@H](CO[C@@H]3O[C@H](COC(=O)/C=C/c4ccc(O)cc4)[C@@H](O)[C@H](O)[C@H]3O)[C@@H](O)[C@H](O)[C@H]2O)[C@@H]2C(CO)=CC[C@H]12` [6'-O-P-COUMAROYLGENIPIN GENTIOBIOSIDE], the IC50 worked out at 78.7 µM.

For the compound `C[C@@H]1O[C@@H](OC[C@H]2O[C@@H](Oc3c(-c4ccc(O)c(O)c4)oc4cc(O)cc(O)c4c3=O)[C@H](O)[C@@H](O)[C@@H]2O)[C@H](O)[C@H](O)[C@H]1O` [RUTIN], the IC50 was 15.1 µM.

On to `COC(=O)C1=CO[C@@H](O[C@@H]2O[C@H](CO)[C@@H](O)[C@H](O)[C@H]2O)[C@@H]2C(CO)=C[C@@H](OC[C@H]3O[C@@H](O[C@@H]4OC=C(C(=O)OC)[C@H]5C=C[C@](O)(CO)[C@@H]45)[C@H](O)[C@@H](O)[C@@H]3O)[C@H]12` [ROTUNDUSIDE A], for which the IC50 was 217 µM.

In the case of `COc1cc(/C=C/C(=O)O[C@H]2[C@H](O[C@@H]3O[C@H](CO)[C@@H](O)[C@H](O)[C@H]3O)[C@@H](O[C@@H]3OC[C@H](O)[C@H](O)[C@H]3O)[C@H](OCCc3ccc(O)c(O)c3)O[C@@H]2CO)ccc1O` [CHIONOSIDE A], the IC50 turned out to be 336 µM.

Consider `COc1cc(/C=C/C(=O)O[C@H]2[C@H](O[C@@H]3O[C@H](CO)[C@@H](O)[C@H](O)[C@H]3O)[C@@H](O[C@@H]3OC[C@H](O)[C@H](O)[C@H]3O)[C@H](OCCc3ccc(O)c(O)c3)O[C@@H]2CO[C@@H]2OC[C@H](O)[C@@H](O)[C@@H]2O)ccc1O` [HELIOSIDE C], for which the concentration for half-maximal inhibition (IC50) turned out to be 320 µM.

Take `O=C(/C=C/c1ccc(O)cc1)OC[C@H]1O[C@@H](OCCc2ccc(O)c(O)c2)[C@H](O[C@@H]2OC[C@H](O)[C@H](O)[C@H]2O)[C@@H](O[C@@H]2O[C@H](CO)[C@@H](O)[C@H](O)[C@H]2O)[C@@H]1O` [ISOARAGOSIDE]: the IC50 is 308 µM.
